Assay results from patent US20240150293A1, “SPIROCYCLOHEXANE DERIVATIVES, PHARMACEUTICAL COMPOSITIONS CONTAINING THEM AND THEIR USES AS ANTI-APOPTOTIC INHIBITORS” (LES LABORATOIRES SERVIER, priority 2021, published 2024).
Like-named read-outs stand apart in the source and are kept apart here.

Legend:
NCI-H929 cell lines = test: In vitro cytotoxicity, CellTiter-Glo (CTG) assay (Example B, Method B); assay type: cell-based; conditions: NCI-H929 cells, 48 h incubation, read-out: C50
Procedure, shortened: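 NCI-H929 cells exposed to an 11-point compound series from 10 mM DMSO stocks (top final 30 μM) for 48 h at 37° C., 5% CO2. Viability measured as ATP by CellTiter-Glo luminescence; C50 is the concentration giving 50% cellular viability.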

[1] = molecular target: Cy5-labelled Mcl1 (amino acids 171-321) C286S protein (UniProtKB Q07820) (Homo sapiens (Human), UniProt Q07820, C286S); test: Inhibition of Mcl-1 by the fluorescence quenching assay (Example A, Method B); assay type: binding
Cy5-labelled Mcl1 (amino acids 171-321) C286S protein, sequence (Q07820 171-321 C286S): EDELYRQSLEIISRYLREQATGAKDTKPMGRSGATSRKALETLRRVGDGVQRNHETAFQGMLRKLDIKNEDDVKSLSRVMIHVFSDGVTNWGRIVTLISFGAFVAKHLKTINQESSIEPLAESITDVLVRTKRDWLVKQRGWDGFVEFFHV
Procedure, shortened: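 Cy5-labelled Mcl1 171-321 C286S (1 nM) quenched by TQ5WS-labelled PUMA peptide (10, 20 or 400 nM); displacement raises fluorescence (Ex 620/Em 680 nm). Buffer 10 mM HEPES, 150 mM NaCl, 0.05% Tween 20, pH 7.4, 5% DMSO; 2 h at room temperature, 11-point curves, IC50 converted to Ki (cKi/eKi).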

Ki [1] | Ki ([1]; Ki determined from IC50) | inhibition at 1 µM ([1]; @ 1 μM, read-out: Mcl-1 inhibition, % at a single concentration) | Structure (SMILES) | IC50 (NCI-H929 cell lines; Homo sapiens, NCI-H929, 48 h) | IC50 (NCI-H929 cell lines)
0.0244 nM |  |  | C[C@@H](COc1ccnc2c1[C@H](C)CCC2)C[C@H]1Cc2cc3c(cc2[C@]12CC[C@@](Nc1cccc(Cl)c1)(C(=O)O)CC2)O[C@@H](C)[C@H](C)O3 [Example 975, (1r,2′S,3'S,4S,7′S)-4-(3-chloroanilino)-2′,3′-dimethyl-7′-[(2R)-2-methyl-3-{[(5R)-5-methyl-5,6,7,8-tetrahydroquinolin-4-yl]oxy}propyl]-2′,3′,7′,8′-tetrahydrospiro[cyclohexane-1,6′-indeno[5,6-b][1,4]dioxine]-4-carboxylic acid] | 80.2 nM | 
0.0955 nM |  |  | C[C@@H](COc1ccnc2c1[C@H](C)CCC2)C[C@H]1Cc2cc3c(cc2[C@]12CC[C@@](Nc1cccc(Cl)c1)(C(=O)O)CC2)OCC[C@H](C)O3 [Example 985, (1r,2′S,4S,8′S)-4-(3-chloroanilino)-2′-methyl-8′-[(2R)-2-methyl-3-{[(5R)-5-methyl-5,6,7,8-tetrahydroquinolin-4-yl]oxy}propyl]-3′,4′,8′,9′-tetrahydro-2′H-spiro[cyclohexane-1,7′-indeno[5,6-b][1,4]dioxepine]-4-carboxylic acid] | 121 nM | 
6.24 nM |  |  | C[C@@H](COc1ccnc2c1[C@H](C)CCC2)C[C@H]1Cc2cc3c(cc2[C@]12CC[C@@](Nc1cccc(Cl)c1)(C(=O)NS(C)(=O)=O)CC2)OCO3 [Example 957, (1r,4S,6′S)-4-(3-chloroanilino)-N-(methanesulfonyl)-6′-[(2R)-2-methyl-3-{[(5R)-5-methyl-5,6,7,8-tetrahydroquinolin-4-yl]oxy}propyl]-6′,7′-dihydro-2′H-spiro[cyclohexane-1,5′-indeno[5,6-d][1,3]dioxole]-4-carboxamide] | 4700 nM | 
 | 0.31 nM |  | Cc1c(Cl)cccc1N[C@]1(C(=O)O)CC[C@]2(CC1)c1cc3c(cc1CN2C[C@@H](C)COc1ccnc2c1[C@H](C)CCC2)OCO3 [Example 49, (1s,4S)-4-(3-chloro-2-methylanilino)-6′-[(2R)-2-methyl-3-{[(5R)-5-methyl-5,6,7,8-tetrahydroquinolin-4-yl]oxy}propyl]-6′,7′-dihydro-2′H-spiro[cyclohexane-1,5′-[1,3]dioxolo[4,5-f]isoindole]-4-carboxylic acid] | 242 nM | 
0.149 nM |  |  | COCCOc1cc2c(cc1Cl)C[C@H](C[C@@H](C)COc1ccnc3c1[C@H](C)CCC3)[C@]21CC[C@](Nc2cccc(Cl)c2)(C(=O)O)CC1 [Example 822, (1r,2′S,4S)-5′-chloro-4-(3-chloroanilino)-6′-(2-methoxyethoxy)-2′-[(2R)-2-methyl-3-{[(5R)-5-methyl-5,6,7,8-tetrahydroquinolin-4-yl]oxy}propyl]-2′,3′-dihydrospiro[cyclohexane-1,1′-indene]-4-carboxylic acid] | 64.1 nM | 
0.0505 nM |  |  | C[C@@H](COc1ccnc2c1[C@H](C)CCC2)C[C@H]1Cc2ccc(COC3CCCO3)cc2[C@]12CC[C@@](Nc1cccc(Cl)c1)(C(=O)O)CC2 (stereo partly drawn) [Example 872, (1r,2′S,4S)-4-(3-chloroanilino)-2′-[(2R)-2-methyl-3-{[(5R)-5-methyl-5,6,7,8-tetrahydroquinolin-4-yl]oxy}propyl]-6′-{[(oxolan-2-yl)oxy]methyl}-2′,3′-dihydrospiro[cyclohexane-1,1′-indene]-4-carboxylic acid] | 52.9 nM | 
162 nM |  |  | CC(OC(=O)OC1CCCC1)OC(=O)[C@]1(Nc2cccc(Cl)c2)CC[C@@]2(CC1)c1cc3c(cc1C[C@@H]2C[C@@H](C)COc1ccnc2c1[C@H](C)CCC2)OCO3 (stereo partly drawn) [Example 945, 1-{[(cyclopentyloxy)carbonyl]oxy}ethyl (1r,4S,6′S)-4-(3-chloroanilino)-6′-[(2R)-2-methyl-3-{[(5R)-5-methyl-5,6,7,8-tetrahydroquinolin-4-yl]oxy}propyl]-6′,7′-dihydro-2′H-spiro[cyclohexane-1,5′-indeno[5,6-d][1,3]dioxole]-4-carboxylate] | 24700 nM | 
 | 0.177 nM |  | Cc1ccc2c(c1)CN(C[C@@H](C)COc1ccnc3c1[C@H](C)CCC3)[C@]21CC[C@](Nc2ccc(F)c(Cl)c2)(C(=O)O)CC1 [Example 54, (1s,4S)-4-(3-chloro-4-fluoroanilino)-5′-methyl-2′-[(2R)-2-methyl-3-{[(5R)-5-methyl-5,6,7,8-tetrahydroquinolin-4-yl]oxy}propyl]-2′,3′-dihydrospiro[cyclohexane-1,1′-isoindole]-4-carboxylic acid] | 177 nM | 
 |  | 4.5% | CCOC(=O)[C@]1(Nc2cccc(Cl)c2)CC[C@@]2(CC1)c1cc3c(cc1C[C@@H]2C[C@@H](C)COc1ccnc2c1[C@H](C)CCC2)OCO3 [Example 930, ethyl (1r,4S,6′S)-4-(3-chloroanilino)-6′-[(2R)-2-methyl-3-{[(5R)-5-methyl-5,6,7,8-tetrahydroquinolin-4-yl]oxy}propyl]-6′,7′-dihydro-2′H-spiro[cyclohexane-1,5′-indeno[5,6-d][1,3]dioxole]-4-carboxylate] | > 30000 nM | 
0.469 nM |  |  | C[C@@H](COc1ccnc2c1[C@H](C)CCC2)C[C@H]1Cc2ccc(OCC(F)(F)F)cc2[C@]12CC[C@@](Nc1cccc(Cl)c1)(C(=O)O)CC2 [Example 792, (1r,2′S,4S)-4-(3-chloroanilino)-2′-[(2R)-2-methyl-3-{[(5R)-5-methyl-5,6,7,8-tetrahydroquinolin-4-yl]oxy}propyl]-6′-(2,2,2-trifluoroethoxy)-2′,3′-dihydrospiro[cyclohexane-1,1′-indene]-4-carboxylic acid] | 143 nM | 
0.00728 nM |  |  | C[C@@H](COc1ccnc2c1[C@H](C)CCC2)C[C@H]1Cc2cc3c(cc2[C@]12CC[C@@](Nc1cccc(Cl)c1)(C(=O)O)CC2)O[C@@H](C)CCO3 [Example 984, (1r,4S,4'S,8′S)-4-(3-chloroanilino)-4′-methyl-8′-[(2R)-2-methyl-3-{[(5R)-5-methyl-5,6,7,8-tetrahydroquinolin-4-yl]oxy}propyl]-3′,4′,8′,9′-tetrahydro-2′H-spiro[cyclohexane-1,7′-indeno[5,6-b][1,4]dioxepine]-4-carboxylic acid] | 35.5 nM | 
0.0264 nM |  |  | CC1COc2cc3c(cc2OC1)[C@]1(CC[C@@](Nc2cccc(Cl)c2)(C(=O)O)CC1)[C@@H](C[C@@H](C)COc1ccnc2c1[C@H](C)CCC2)C3 (single isomer, unassigned) [Example 982] |  | 157 nM
142 nM |  |  | C[C@@H](COc1ccnc2c1[C@H](C)CCC2)C[C@H]1Cc2cc3c(cc2[C@]12CC[C@@](Nc1cccc(Cl)c1)(C(=O)OCC(=O)N(C)C)CC2)OCO3 [Example 936, 2-(dimethylamino)-2-oxoethyl (1r,4S,6′S)-4-(3-chloroanilino)-6′-[(2R)-2-methyl-3-{[(5R)-5-methyl-5,6,7,8-tetrahydroquinolin-4-yl]oxy}propyl]-6′,7′-dihydro-2′H-spiro[cyclohexane-1,5′-indeno[5,6-d][1,3]dioxole]-4-carboxylate] | 6840 nM | 
0.0666 nM |  |  | CC(C)C1COc2cc3c(cc2OC1)[C@]1(CC[C@@](Nc2cccc(Cl)c2)(C(=O)O)CC1)[C@@H](C[C@@H](C)COc1ccnc2c1[C@H](C)CCC2)C3 (single isomer, unassigned) [Example 993] |  | 143 nM
0.0238 nM |  |  | C[C@@H](COc1ccnc2c1[C@H](C)CCC2)C[C@H]1Cc2cc3c(cc2[C@]12CC[C@@](Nc1cccc(Cl)c1)(C(=O)O)CC2)OCC(C)(C)CO3 [Example 981, (1r,4S,8′S)-4-(3-chloroanilino)-3′,3′-dimethyl-8′-[(2R)-2-methyl-3-{[(5R)-5-methyl-5,6,7,8-tetrahydroquinolin-4-yl]oxy}propyl]-3′,4′,8′,9′-tetrahydro-2′H-spiro[cyclohexane-1,7′-indeno[5,6-b][1,4]dioxepine]-4-carboxylic acid] | 86 nM | 
 | 0.762 nM |  | C[C@@H](COc1ccnc2c1[C@H](C)CCC2)CN1Cc2cc(Cl)ccc2[C@]12CC[C@@](Nc1cccc(Cl)c1)(C(=O)O)CC2 [Example 56, (1s,4S)-5′-chloro-4-(3-chloroanilino)-2′-[(2R)-2-methyl-3-{[(5R)-5-methyl-5,6,7,8-tetrahydroquinolin-4-yl]oxy}propyl]-2′,3′-dihydrospiro[cyclohexane-1,1′-isoindole]-4-carboxylic acid] | 151 nM | 
 | 0.255 nM |  | COc1cc2c(cc1Cl)CN(C[C@@H](C)COc1ccnc3c1[C@H](C)CCC3)[C@]21CC[C@](Nc2cccc(Cl)c2)(C(=O)O)CC1 [Example 46, (1s,4S)-5′-chloro-4-(3-chloroanilino)-6′-methoxy-2′-[(2R)-2-methyl-3-{[(5R)-5-methyl-5,6,7,8-tetrahydroquinolin-4-yl]oxy}propyl]-2′,3′-dihydrospiro[cyclohexane-1,1′-isoindole]-4-carboxylic acid] | 262 nM | 
15.5 nM |  |  | C[C@@H](COc1ccnc2c1[C@H](C)CCC2)C[C@H]1Cc2cc3c(cc2[C@]12CC[C@@](Nc1cccc(Cl)c1)(C(=O)OCOC(=O)C(C)(C)C)CC2)OCO3 [Example 942, [(2,2-dimethylpropanoyl)oxy]methyl (1r,4S,6′S)-4-(3-chloroanilino)-6′-[(2R)-2-methyl-3-{[(5R)-5-methyl-5,6,7,8-tetrahydroquinolin-4-yl]oxy}propyl]-6′,7′-dihydro-2′H-spiro[cyclohexane-1,5′-indeno[5,6-d][1,3]dioxole]-4-carboxylate] | 222 nM | 
